According to patent US11617741B1, “Method for inhibiting growth of bacteria” (priority 2021, dated 2023):
Converted amounts (≈) assume the structure as drawn. Like-named read-outs stand apart in the source and are kept apart here. Marks after values point to notes of the source that are not given here.

Assays:
[1] = test system: S. aureus N315 (MRSA isolate); assay: Minimum inhibitory and bactericidal concentration determination; type: cell-based, Staphylococcus aureus; conditions: for change of MIC in minimal media compared to rich media: S. aureus N315; for MIC: Staphylococcus aureus, MRSA; for MIC S. aureus N315: Table 2; for MBC S. aureus N315: Table 2, value in parentheses
Experimental: (§1) The 96-well plate was organized as follows. Media (100 μl) were added to all wells.

[2] = test system: PKZRSA1 (PKZ18-22-resistant MRSA); assay: MICs against PKZ18-22-resistant mutant compared to WT MRSA; type: cell-based, Staphylococcus aureus
Experimental: as §1

[3] = test system: glyQS T-box; assay: qRT-PCR transcriptional read-through of T-box-regulated glyQS (confirmation of inhibition of T-box mechanism); type: cell-based, Bacillus subtilis 1A5; conditions: for T-box-controlled expression of glyQS (termination of read-through): B. subtilis 1A5, increasing concentrations, minimal media; for T-Box targeting: confirmation of inhibition of T-box mechanism from qRT-PCR assay; for inhibition of read-through compared with PKZ18: 4 μg/ml of each drug, side by side in same biological replicate
Text: Sample preparation of RNA and cDNA.

[4] = test system: E. coli; assay: Minimum inhibitory and bactericidal concentration determination, Gram-negative control; type: cell-based, Escherichia coli; conditions: for MBC E. coli: value in parentheses
Experimental: as §1

[5] = test system: S. aureus N315; assay: Checkerboard assay and FIC; type: cell-based, Staphylococcus aureus
Experimental: S. aureus N315 cultures were prepared identically to MIC determination in BHI media. The co-MICs were determined using the checkerboard method. In short, antibiotics to be tested with PKZ18 analogs were diluted 2-fold top to bottom (A to G rows) in a 96-well plate, PKZ18 analogs were diluted 2-fold right to left (columns 11-2 of the 96-well plate), and column 12 was used for vector, media, and growth controls. Each drug was therefore tested by itself and with every dilution of the other drug.
The synergistic and additive interactions were determined based on determined cutoffs using the equation
[formula] where MICAB is the lowest possible concentration of both drugs combined where there is no growth, and MICA and MICB are the MIC values of the individual drugs. For a synergistic drug interaction, the fractional inhibitory concentration (FIC) should be below 0.5, additive or indifferent effects are considered in an FIC range of 0.5 to <4, and an FIC value above 4 is considered antagonistic.

[6] = test system: T-box controlled genes in MRSA; assay: RNA sequencing of MRSA grown in minimal media; type: cell-based, Staphylococcus aureus; conditions: 4 μg/ml, control antibiotic
[7] = test system: B. subtilis 168; assay: Minimum inhibitory concentration determination; type: cell-based, Bacillus subtilis
Experimental: as §1

[8] = test system: S. aureus N315 (MRSA); assay: Antibiotic resistance frequency (fluctuation assay); type: cell-based, Staphylococcus aureus; conditions: MRSA plated on 64 μg/ml PKZ18-22 or 10 μg/ml gentamicin
Text: Gentamicin on BHI agar was used as a control.

Row | Molecule | T-Box targeting ([3]; Table 1) | T-Box targeting ([3]; Table 2) | MIC S. aureus N315 [1] | MBC S. aureus N315 [1] | MIC E. coli [4] | MBC E. coli [4] | also measured
1 | C/C(=C\C(=O)OCCCCCCCCC(=O)O)C[C@@H]1OC[C@H](C[C@@H]2O[C@H]2[C@@H](C)[C@H](C)O)[C@@H](O)[C@H]1O [Mupirocin, reference compound] | – | – | – | – | – | – | change of MIC in minimal media compared to rich media [1]: increased MICs; MIC ([1]; S. aureus N315, minimal media, read-out: MIC against S. aureus in minimal media): 1 µg/mL (≈ 2 µM); MIC ([1]; S. aureus N315, rich media, read-out: MIC against S. aureus in rich media): 0.25 µg/mL (≈ 0.499 µM); change in the MIC between WT and PKZRSA1 [2]: no change
2 | CC(C)c1ccc(-c2csc(NC(=O)C3C4CCC(C4)C3C(=O)O)n2)cc1 (stereo not shown) [PKZ18-21] | Yes | Yes | 64 µg/mL (≈ 166 µM) | > 256 µg/mL | > 256 µg/mL | > 256 µg/mL | T-box-controlled expression of glyQS (termination of read-through) [3]: inhibited
3 | CCCCc1ccc(-c2nc(NC(=O)C3C4C=CC(C4)C3C(=O)O)sc2C)cc1 (stereo not shown) [PKZ18-52] | Yes | Yes | 32 µg/mL (≈ 77.9 µM) | 64 µg/mL (≈ 156 µM) | > 256 µg/mL | > 256 µg/mL | inhibition of read-through compared with PKZ18 [3]: significantly better than PKZ18; T-box-controlled expression of glyQS (termination of read-through) [3]: inhibited; MIC against S. aureus in minimal media ([1]; S. aureus N315, minimal media): 16^b μg/ml; MIC against S. aureus in rich media ([1]; S. aureus N315, rich media): 16-32^b μg/ml; fractional inhibitory concentration FIC ([5]; with gentamicin): 0.38
4 | Cc1sc(NC(=O)C2C3C=CC(C3)C2C(=O)O)nc1-c1ccc(CC(C)C)cc1 (stereo not shown) [PKZ18-53] | Yes | Yes | 32 µg/mL (≈ 77.9 µM) | 64 µg/mL (≈ 156 µM) | > 256 µg/mL | > 256 µg/mL | inhibition of read-through compared with PKZ18 [3]: significantly better than PKZ18; T-box-controlled expression of glyQS (termination of read-through) [3]: inhibited; fold reduction in MIC in minimal compared to rich media ([1]; MRSA strain S. aureus N315): 2 fold; MIC against S. aureus in minimal media ([1]; S. aureus N315, minimal media): 16^b μg/ml; MIC against S. aureus in rich media ([1]; S. aureus N315, rich media): 32^b μg/ml; fractional inhibitory concentration FIC ([5]; with ampicillin): 0.75; fractional inhibitory concentration FIC ([5]; with chloramphenicol): 0.75; fractional inhibitory concentration FIC ([5]; with gentamicin): 0.38
5 | CCCCc1ccc(-c2nc(NC(=O)C3C4CCC(O4)C3C(=O)O)sc2C)cc1 (stereo not shown) [PKZ18-54] | No | No | 128 µg/mL (≈ 309 µM) | 256 µg/mL (≈ 618 µM) | > 256 µg/mL | > 256 µg/mL | –
6 | COc1ccc(-c2csc(NC(=O)C3C4CCC(C4)C3C(=O)O)n2)cc1 (stereo not shown) [PKZ18-55] | No | No | > 256 µg/mL | > 256 µg/mL | > 256 µg/mL | > 256 µg/mL | –
7 | CCCc1ccc(-c2nc(NC(=O)C3C4CCC(O4)C3C(=O)O)sc2C)cc1 (stereo not shown) [PKZ18-56] | No | No | > 256 µg/mL | > 256 µg/mL | > 256 µg/mL | > 256 µg/mL | –
8 | Cc1sc(NC(=O)C2C3CCC(O3)C2C(=O)O)nc1-c1ccc(CC(C)C)cc1 (stereo not shown) [PKZ18-57] | No | No | > 256 µg/mL | > 256 µg/mL | > 256 µg/mL | > 256 µg/mL | –
9 | CCc1ccc(-c2csc(NC(=O)C3C4CCC(C4=C(C)C)C3C(=O)O)n2)cc1 (stereo not shown) [PKZ18-58] | No | No | – | – | – | – | –
10 | O=C(N[C@H](CO)[C@H](O)c1ccc([N+](=O)[O-])cc1)C(Cl)Cl [chloramphenicol] | – | – | – | – | – | – | fold lower MIC for PKZRSA1 than WT MRSA [2]: 2 fold
11 | CCCCCCCCCC(=O)N[C@@H](Cc1c[nH]c2ccccc12)C(=O)N[C@H](CC(N)=O)C(=O)N[C@@H](CC(=O)O)C(=O)N[C@@H]1C(=O)NCC(=O)N[C@@H](CCCN)C(=O)N[C@@H](CC(=O)O)C(=O)N[C@H](C)C(=O)N[C@@H](CC(=O)O)C(=O)NCC(=O)N[C@H](CO)C(=O)N[C@@H]([C@H](C)CC(=O)O)C(=O)N[C@@H](CC(=O)c2ccccc2N)C(=O)O[C@@H]1C [daptomycin, reference compound] | – | – | – | – | – | – | change in the MIC between WT and PKZRSA1 [2]: no change; expression and read-through of T-box-controlled genes [6]: lower than untreated for many of the genes; initiation of T-box-controlled genes [6]: did not significantly affect
12 | Cc1onc(-c2ccccc2)c1C(=O)N[C@@H]1C(=O)N2[C@@H]1SC(C)(C)[C@@H]2C(=O)O [oxacillin] | – | – | – | – | – | – | fold increase in MIC against PKZRSA1 compared to WT [2]: 16 fold
13 | CO[C@H]1/C=C/O[C@@]2(C)Oc3c(C)c(O)c4c(O)c(c(/C=N/N5CCN(C)CC5)c(O)c4c3C2=O)NC(=O)/C(C)=C\C=C\[C@H](C)[C@H](O)[C@@H](C)[C@@H](O)[C@@H](C)[C@H](OC(C)=O)[C@@H]1C [rifampin] | – | – | – | – | – | – | change in the MIC between WT and PKZRSA1 [2]: no change
14 | Gentamicin [reference compound] | – | – | – | – | – | – | change of MIC in minimal media compared to rich media [1]: increased MICs; MIC against S. aureus in minimal media ([1]; S. aureus N315, minimal media): 2.0^b μg/ml; MIC against S. aureus in rich media ([1]; S. aureus N315, rich media): 0.5^b μg/ml; MIC against B. subtilis 168 in minimal media ([7]; minimal media): 0.25 µg/mL; MIC against B. subtilis 168 in rich media ([7]; rich media): 0.125 µg/mL; fold decrease in the MIC of gentamicin ([5]; in combination with PKZ18-22): 8 fold; resistance frequency [8]: 1.6×10^−7; fold increase in MIC against PKZRSA1 compared to WT [2]: 2 fold
